Test results taken from patent publication US10098350B2, “Fungicidal amides” (E. I. DU PONT DE NEMOURS AND COMPANY, priority 2013, dated 2018).

Tests used:
Format in all cases: in vivo
[1] = system: Stagonospora nodorum (also known as Septoria nodorum); assay: Test B: wheat seedlings sprayed with test suspension, inoculated with Stagonospora nodorum (wheat glume blotch), visual disease rating; details: Cmpd. No. unmarked; 100 = 100% disease control, 0 = no control relative to controls
Description: (§1) General protocol for preparing test suspensions for Tests A-E: the test compounds were first dissolved in acetone in an amount equal to 3% of the final volume and then suspended at the desired concentration (in ppm) in acetone and purified water (50/50 mix by volume) containing 250 ppm of the surfactant Trem® 014 (polyhydric alcohol esters). The resulting test suspensions were then used in Tests A-E. Samples were applied to plants at either a 10 ppm (**), 40 ppm, 50 ppm (*) or 200 ppm (#) test solution to the point of run-off on the test plants with the equivalent of a rate of 40 g ai/ha, 160 g ai/ha, 200 g ai/ha, or 800 g ai/ha, respectively.
The test suspension was sprayed to the point of run-off on wheat seedlings. The following day the seedlings were inoculated with a spore suspension of Stagonospora nodorum (also known as Septoria nodorum; the causal agent of wheat glume blotch) and incubated in a saturated atmosphere at 20° C. for 48 h, and then moved to a growth chamber at 20° C. for 6 days, after which time visual disease ratings were made.
(§2) Results for Tests A-E are given in Table A. In the Table, a rating of 100 indicates 100% disease control and a rating of 0 indicates no disease control (relative to the controls). A dash (-) indicates no test results.

Septoria tritici = assay: Test C: wheat seedlings sprayed with test suspension, inoculated with Septoria tritici (wheat leaf blotch), visual disease rating
Description: as §1
(§3) The test suspension was sprayed to the point of run-off on wheat seedlings. The following day the seedlings were inoculated with a spore suspension of Septoria tritici (the causal agent of wheat leaf blotch) and incubated in a saturated atmosphere at 24° C. for 48 h, and then moved to a growth chamber at 20° C. for 21 days, after which time visual disease ratings were made.
as §2

[2] = system: Puccinia recondite f. sp. tritici; assay: Test D: wheat seedlings sprayed with test suspension, inoculated with Puccinia recondite f. sp. tritici (wheat leaf rust), visual disease rating
Description: as §1
as §3, with “Puccinia recondite f. sp. tritici;” for “Septoria tritici”, “rust)” for “blotch)”, “20°” for “24°”, “24” for “48”, “6” for “21”
as §2

[3] = system: Erysiphe graminis f. sp. tritici; assay: Test E: wheat seedlings sprayed with test suspension, inoculated with Erysiphe graminis f. sp. tritici (wheat powdery mildew), visual disease rating
Description: as §1
The test suspension was sprayed to the point of run-off on wheat seedlings. The following day the seedlings were inoculated with a spore dust of Erysiphe graminis f. sp. tritici, (the causal agent of wheat powdery mildew) and incubated in a growth chamber at 20° C. for 7 or 8 days, after which time visual disease ratings were made.
as §2

[4] = Cmpd. No. unmarked, 100 = 100% disease control, 0 = no control relative to controls
[5] = Cmpd. No. marked '**' (other test rate; meaning of mark not shown)
[6] = Cmpd. No. marked '*' (other test rate; meaning of mark not shown)

## Cn1nc(C(F)F)c(C(=O)N(Cc2c(Cl)cc(-n3cccn3)cc2Cl)C2CC2)c1F [compound 125]
[1]
  Test B rating (% disease control): 100%
Septoria tritici; [4]
  Test C rating (% disease control): 99%
[2]; [4]
  Test D rating (% disease control): 100%
[3]; [4]
  Test E rating (% disease control): 92%

## Cn1nc(C(F)F)c(C(=O)N(Cc2ncc(-n3ccc(C(F)(F)F)n3)cc2Br)C2CC2)c1F [compound 91]
Septoria tritici; [5]
  Test C rating (% disease control): 100%
[2]; [5]
  Test D rating (% disease control): 98%
[3]; [5]
  Test E rating (% disease control): 73%

## Cn1nc(C(F)F)c(C(=O)N(Cc2ccc(-n3ccc(C(F)(F)F)n3)cc2Br)C2CC2)c1F [compound 106]
[1]
  Test B rating (% disease control): 100%
Septoria tritici; [4]
  Test C rating (% disease control): 96%
[2]; [4]
  Test D rating (% disease control): 99%
[3]; [4]
  Test E rating (% disease control): 97%

## Cn1cc(C(=O)N(Cc2ccc(-n3cncn3)cc2Cl)C2CC2)c(C(F)F)n1 [compound 50]
[1]
  Test B rating (% disease control): 0%
Septoria tritici; [4]
  Test C rating (% disease control): 28%
[2]; [4]
  Test D rating (% disease control): 0%
[3]; [4]
  Test E rating (% disease control): 0%

## Cc1cc(-n2ccc(C(F)(F)F)n2)cnc1CN(C(=O)c1c(C(F)F)nn(C)c1F)C1CC1 [compound 81]
Septoria tritici; [5]
  Test C rating (% disease control): 94%
[2]; [5]
  Test D rating (% disease control): 98%
[3]; [5]
  Test E rating (% disease control): 81%

## Cn1nc(C(F)F)c(C(=O)N(Cc2ncc(-n3ccc(C(F)(F)F)n3)cc2Cl)C2CC2)c1F [compound 122]
Septoria tritici; [5]
  Test C rating (% disease control): 96%
[2]; [5]
  Test D rating (% disease control): 99%
[3]; [5]
  Test E rating (% disease control): 87%

## Cc1ccc(CN(C(=O)c2c(C(F)F)nn(C)c2F)C2CC2)cc1-n1ccc(C(F)(F)F)n1 [compound 87]
Septoria tritici; [6]
  Test C rating (% disease control): 98%
[2]; [6]
  Test D rating (% disease control): 80%
[3]; [6]
  Test E rating (% disease control): 92%

## Cn1cc(C(=O)N(Cc2cc(-n3ccc(C(F)(F)F)n3)ncc2Cl)C2CC2)c(C(F)F)n1 [compound 75]
Septoria tritici; [5]
  Test C rating (% disease control): 24%
[2]; [5]
  Test D rating (% disease control): 45%
[3]; [5]
  Test E rating (% disease control): 0%

## Cn1cc(C(=O)N(Cc2ncc(-n3ccc(C(F)(F)F)n3)cc2Br)C2CC2)c(C(F)F)n1 [compound 16]
Septoria tritici; [6]
  Test C rating (% disease control): 100%
[2]; [6]
  Test D rating (% disease control): 67%
[3]; [6]
  Test E rating (% disease control): 56%

## Cc1cc(CN(C(=O)c2c(C(F)F)nn(C)c2F)C2CC2)ccc1-n1ccc(C(F)(F)F)n1 [compound 93]
Septoria tritici; [5]
  Test C rating (% disease control): 100%
[2]; [5]
  Test D rating (% disease control): 99%
[3]; [5]
  Test E rating (% disease control): 69%

## CC(c1cccc(-n2ccc(C(F)(F)F)n2)c1Cl)N(C(=O)c1c(C(F)F)nn(C)c1F)C1CC1 (stereo not shown) [compound 79]
Septoria tritici; [6]
  Test C rating (% disease control): 99%
[2]; [6]
  Test D rating (% disease control): 74%
[3]; [6]
  Test E rating (% disease control): 98%

## CC(c1ncc(-n2ccc(-c3ccccc3)n2)cc1Cl)N(C(=O)c1c(C(F)F)nn(C)c1F)C1CC1 (racemic) [compound 90]
Septoria tritici; [5]
  Test C rating (% disease control): 99%
[2]; [5]
  Test D rating (% disease control): 99%
[3]; [5]
  Test E rating (% disease control): 86%

## CC(c1ncc(-n2ccc(C(F)(F)F)n2)cc1Cl)N(C(=O)c1c(C(F)F)nn(C)c1F)C1CC1 (stereo not shown) [compound 103]
Septoria tritici; [5]
  Test C rating (% disease control): 98%
[2]; [5]
  Test D rating (% disease control): 98%
[3]; [5]
  Test E rating (% disease control): 94%

## COc1ccc(-n2ccc(C(F)(F)F)n2)cc1CN(C(=O)c1c(C(F)F)nn(C)c1F)C1CC1 [compound 113]
Septoria tritici; [6]
  Test C rating (% disease control): 100%
[2]; [6]
  Test D rating (% disease control): 99%
[3]; [6]
  Test E rating (% disease control): 97%

## CC(C)c1cc(CN(C(=O)c2c(C(F)F)nn(C)c2F)C2CC2)ccc1-n1ccc(C(F)(F)F)n1 [compound 116]
[2]; [5]
  Test D rating (% disease control): 98%
[3]; [5]
  Test E rating (% disease control): 69%

## Cc1ccc(C(C)N(C(=O)c2c(C(F)F)nn(C)c2F)C2CC2)cc1-n1ccc(C(F)(F)F)n1 (stereo not shown) [compound 73]
Septoria tritici; [4]
  Test C rating (% disease control): 99%
[2]; [4]
  Test D rating (% disease control): 85%
[3]; [4]
  Test E rating (% disease control): 90%

## CC(C)c1ccc(-n2ccc(C(F)(F)F)n2)cc1CN(C(=O)c1c(C(F)F)nn(C)c1F)C1CC1 [compound 88]
Septoria tritici; [6]
  Test C rating (% disease control): 94%
[2]; [6]
  Test D rating (% disease control): 99%
[3]; [6]
  Test E rating (% disease control): 98%

## Cn1cc(-c2cnc(CN(C(=O)c3c(C(F)F)nn(C)c3F)C3CC3)c(Br)c2)cn1 [compound 110]
Septoria tritici; [6]
  Test C rating (% disease control): 90%
[2]; [6]
  Test D rating (% disease control): 94%
[3]; [6]
  Test E rating (% disease control): 40%

## COc1cc(CN(C(=O)c2c(C(F)F)nn(C)c2F)C2CC2)ccc1-n1ccc(C(F)(F)F)n1 [compound 96]
Septoria tritici; [5]
  Test C rating (% disease control): 100%
[2]; [5]
  Test D rating (% disease control): 99%
[3]; [5]
  Test E rating (% disease control): 73%

## CC(c1ccc(Cl)c(-n2ccc(C(F)(F)F)n2)c1)N(C(=O)c1c(C(F)F)nn(C)c1F)C1CC1 (stereo not shown) [compound 74]
Septoria tritici; [4]
  Test C rating (% disease control): 99%
[2]; [4]
  Test D rating (% disease control): 27%
[3]; [4]
  Test E rating (% disease control): 93%

## Cn1nc(C(F)F)c(C(=O)N(Cc2ncc(-n3ccc(C(F)(F)F)n3)cc2C2CC2)C2CC2)c1F [compound 114]
Septoria tritici; [5]
  Test C rating (% disease control): 100%
[2]; [5]
  Test D rating (% disease control): 100%
[3]; [5]
  Test E rating (% disease control): 92%

## Cn1nc(C(F)F)c(C(=O)N(Cc2cc(-n3ccc(C(F)(F)F)n3)ncc2Cl)C2CC2)c1F [compound 92]
[2]; [5]
  Test D rating (% disease control): 67%
[3]; [5]
  Test E rating (% disease control): 0%

## Cn1nc(C(F)F)c(C(=O)N(Cc2cccc(-n3ccc(C(F)(F)F)n3)c2Cl)C2CC2)c1F [compound 136]
Septoria tritici; [6]
  Test C rating (% disease control): 100%
[2]; [6]
  Test D rating (% disease control): 99%
[3]; [6]
  Test E rating (% disease control): 87%

## CC(c1cc(Cl)cc(-n2ccc(C(F)(F)F)n2)c1)N(C(=O)c1c(C(F)F)nn(C)c1F)C1CC1 (stereo not shown) [compound 54]
Septoria tritici; [6]
  Test C rating (% disease control): 96%
[2]; [6]
  Test D rating (% disease control): 99%
[3]; [6]
  Test E rating (% disease control): 93%

## CC(c1ncc(-n2cccn2)cc1Cl)N(C(=O)c1c(C(F)F)nn(C)c1F)C1CC1 (racemic) [compound 101]
Septoria tritici; [5]
  Test C rating (% disease control): 96%
[2]; [5]
  Test D rating (% disease control): 82%
[3]; [5]
  Test E rating (% disease control): 79%

## C=C(C)c1cc(CN(C(=O)c2c(C(F)F)nn(C)c2F)C2CC2)ccc1-n1ccc(C(F)(F)F)n1 [compound 102]
Septoria tritici; [5]
  Test C rating (% disease control): 100%
[2]; [5]
  Test D rating (% disease control): 98%
[3]; [5]
  Test E rating (% disease control): 13%

## C=C(C)c1ccc(-n2ccc(C(F)(F)F)n2)cc1C(C)N(C(=O)c1c(C(F)F)nn(C)c1F)C1CC1 (racemic) [compound 123]
Septoria tritici; [6]
  Test C rating (% disease control): 100%
[2]; [6]
  Test D rating (% disease control): 92%
[3]; [6]
  Test E rating (% disease control): 93%

## CC(C)c1ccc(-n2ccc(C(F)(F)F)n2)cc1C(C)N(C(=O)c1cn(C)nc1C(F)F)C1CC1 (stereo not shown) [compound 82]
Septoria tritici; [6]
  Test C rating (% disease control): 88%
[2]; [6]
  Test D rating (% disease control): 0%
[3]; [6]
  Test E rating (% disease control): 87%

## CC(c1ncc(-n2cc(Br)cn2)cc1Cl)N(C(=O)c1c(C(F)F)nn(C)c1F)C1CC1 (stereo not shown) [compound 78]
Septoria tritici; [5]
  Test C rating (% disease control): 100%
[2]; [5]
  Test D rating (% disease control): 94%
[3]; [5]
  Test E rating (% disease control): 92%

## Cn1nc(C(F)F)c(C(=O)N(Cc2ccc(-n3ccc(C(F)(F)F)n3)c(C(F)(F)F)c2)C2CC2)c1F [compound 95]
Septoria tritici; [5]
  Test C rating (% disease control): 87%
[2]; [5]
  Test D rating (% disease control): 67%
[3]; [5]
  Test E rating (% disease control): 27%

## Cn1nc(C(F)F)c(C(=O)N(Cc2cccc(-n3ccc(C(F)(F)F)n3)c2C(F)(F)F)C2CC2)c1F [compound 137]
Septoria tritici; [6]
  Test C rating (% disease control): 94%
[2]; [6]
  Test D rating (% disease control): 98%
[3]; [6]
  Test E rating (% disease control): 87%

## CC(c1cccc(-n2ccc(C(F)(F)F)n2)c1Cl)N(C(=O)c1cn(C)nc1C(F)F)C1CC1 (stereo not shown) [compound 77]
Septoria tritici; [5]
  Test C rating (% disease control): 82%
[2]; [5]
  Test D rating (% disease control): 9%
[3]; [5]
  Test E rating (% disease control): 64%

## COc1ccc(-n2ccc(C(F)(F)F)n2)cc1C(C)N(C(=O)c1cn(C)nc1C(F)F)C1CC1 (stereo not shown) [compound 120]
[1]
  Test B rating (% disease control): 100%
Septoria tritici; [4]
  Test C rating (% disease control): 92%
[3]; [4]
  Test E rating (% disease control): 95%

## Cn1cc(C(=O)N(Cc2cc(Cl)cc(-n3ccc(C(F)(F)F)n3)c2)C2CC2)c(C(F)F)n1 [compound 112]
Septoria tritici; [6]
  Test C rating (% disease control): 94%
[2]; [6]
  Test D rating (% disease control): 54%
[3]; [6]
  Test E rating (% disease control): 40%

## CC(c1ncc(-n2ccc(Br)n2)cc1Cl)N(C(=O)c1c(C(F)F)nn(C)c1F)C1CC1 (racemic) [compound 89]
Septoria tritici; [5]
  Test C rating (% disease control): 100%
[2]; [5]
  Test D rating (% disease control): 99%
[3]; [5]
  Test E rating (% disease control): 81%
